Measurements reported in publication PMC5325331, “A steroid like phytochemical Antcin M is an anti-aging reagent that eliminates hyperglycemia-accelerated premature senescence in dermal fibroblasts by direct activation of Nrf2 and SIRT-1” (Oncotarget, 2016).

Experiments:
HNDFs [1] = experiment: Cell proliferation, trypan blue exclusion assay in HG-induced HNDFs; type: cell-based, human; conditions: with HG (30 mM) for 72 h (Figure 2D)
Experimental: Cell proliferation was evaluated using trypan blue exclusion assay as described previously with minor modification. Cells were plated into 6-well plates at a density of 5 × 10^4 cells/well. After incubation overnight, cells were treated with test samples in the presence or absence of HG for 24-72 h. Cells exposed to 0.2% Trypan blue were then counted in a hemocytometer, and cells stained with Trypan blue were excluded. Percentage of viable cells was calculated based on the ratio of viable cells to total cell population in each well. The proliferation rate was calculated based on the number of viable cells in HG or sample-treated groups versus the NG-treated group.

HNDFs [2] = experiment: SA-β-gal senescence assay in HG-induced HNDFs; type: cell-based, human
Experimental: Human normal dermal fibroblasts (HNDFs, CCD966SK) and human umbilical vein endothelial cells (HUVECs) were obtained from the Bioresource Collection and Research Center (BCRC), Hsinchu, Taiwan. HNDFs were grown in MEM containing 10% FBS, 2 mM L-glutamine, 100 U/mL penicillin and streptomycin at 37°C in a fully humidified atmosphere of 5% CO2. Likewise, HUVECs were grown in M-199 medium supplemented with ECGS, heparin, 10% FBS and 100 U/mL penicillin and streptomycin at 37°C in a fully humidified atmosphere of 5% CO2. High-glucose treatment was performed by treating cells with 15 or 30 mM D-glucose (HG) for 24-72 h.
(§1) Senescence-associated β-galactosidase (SA-β-gal) activity was determined in formaldehyde-fixed histochemical staining kit according to the manufacturer's instructions (Cell Signaling Technology, Danvers, […]). Briefly, cells were grown in 6-well plates at a density of 5 × 10^4 cells/well, and incubated with HG or test samples for 48 h (HUVECs) or 72 h (HNDFs). After incubation, cells were stained with SA-β-gal staining solution at pH 6.0 overnight and then the development of blue staining was observed and photographed under a bright-field microscope (Motic Electric Group, Xiamen, P.R. China).

HUVECs = experiment: SA-β-gal senescence assay in HG-treated HUVECs; type: cell-based, human; conditions: ANM 10 μM with HG (30 mM) for 48 h; HG alone 6.38-fold
Experimental: as §1

HO-1 and NQO-1 mRNA = experiment: Q-PCR of anti-oxidant genes in HNDFs; type: cell-based, human; conditions: ANM 10 μM, 12 h
Experimental: Total RNA was extracted from cultured HNDFs using Trizol Reagent (Thermo Fisher Scientific). Q-PCR analysis was performed using Applied Biosystems detection instruments and software. Forward and reverse primers (10 μM), and the working solution SYBR green, was used as a PCR master mix, under the following conditions: 96°C for 3 minutes followed by 40 cycles at 96°C for 1 minute, 50°C for 30 seconds and 72°C for 90 seconds. GAPDH was used as an internal standard to control for variability in amplification because of differences in starting mRNA concentrations. The copy number of each transcript was calculated as the relative copy number normalized by GAPDH copy number.

[3] = tested on: p16INK4A, p21CIP1 and SMP30; experiment: Western blot of senescence-associated marker proteins in HG-induced HNDFs; type: cell-based, human; conditions: 10 μM with HG (30 mM) for 72 h, immunoblotting
Experimental: Cells were lysed by either RIPA lysis buffer or nuclear and cytoplasmic extraction reagents (Thermo Fisher Scientific). Protein concentrations were determined by Bio-Rad protein assay reagent (Bio-Rad Laboratories, Hercules, CA). Equal amounts of protein samples (60 μg) were separated by 7-12% SDS-PAGE and the separated proteins were transferred onto polyvinylidene […] (PVDC) membrane overnight. The transferred protein membranes were blocked with 5% non-fat dried milk for 30 min, followed by incubation with specific primary antibodies overnight, and either horseradish peroxidase-conjugated goat anti-rabbit or anti-mouse antibodies for 2 h. The blots were detected using VL Chemi-Smart 3000 (Viogene Biotek, Sunnyvale, CA) with the enhanced chemiluminescence (ECL) western blotting reagent (Millipore, Billerica, MA).

[4] = tested on: C. elegans wild type Bristol N2; experiment: Life span assay in C. elegans; type: in vivo, Caenorhabditis elegans
Experimental: The wild type Bristol N2 strain was used in this study. C. elegans and Escherichia coli OP50 strain were obtained from the Caenorhabditis Genetic Center, University of Minnesota (Minneapolis-St. Paul, MN). Worms were maintained at 20°C on nematode growth medium (NGM). Hatched worms (L1-stage larvae) were transferred to fresh agar plates and cultured with E. coli OP50 as a food source until they reached the L4 larvae stage. Synchronization of worm cultures was achieved by hypochlorite treatment of gravid hermaphrodites. […] Control worms were treated with 0.1% DMSO. All worms were kept 20°C to develop adulthood. Surviving and dead animals were counted daily (starting from the first day of adulthood) until all worms had died. […] Worms suffering from internal hatch (a defect in egg-laying) and those that crawled off the NGM plate were not included in the life-span assay. During the reproductive period, adult worms were transferred to fresh NGM plates every and then every other day thereafter. Life span assay result was obtained from three independent assays.

HNDFs [5] = experiment: Cell-cycle analysis by flow cytometry (PI) in HG-induced HNDFs; type: cell-based, human; conditions: ANM 10 μM with HG (30 mM) for 72 h; HG 71.2%, NG 46.5%
Experimental: HNDFs at a density of 5 × 10^5 cells in 10 cm dishes were treated with ANM or NAC in the presence or absence of HG for 72 h. Cells were collected, washed with PBS and fixed in 95% cold-ethanol, and kept at −20°C overnight. The cell pellet was then washed again with PBS and centrifuged at 1500 × g for 5 min. The pellet was re-suspended in 1 mL PI/Triton X-100 (20 μg/mL PI, 0.1% Triton X-100 and 0.2 mg/mL RNAse) and incubated on ice for 30 min. The total cellular DNA content was analyzed with a flow cytometer (Beckman Coulter FC500). Data were acquired and analyzed using CXP software (Beckman Coulter).

[6] = tested on: Nrf2 transcriptional activity (ARE promoter); experiment: ARE luciferase reporter assay in HNDFs; type: cell-based, human; conditions: 6 h
Experimental: ARE promoter activity was measured using a dual-luciferase reporter assay system (Promega, Madison, WI). […] Cells were then transfected with ARE plasmid (Qiagen, Hilden, Germany) using Lipofectamine 2000 (Invitrogen) and incubated for 36 h. […] The cell lysate was prepared and incubated with luciferase agents and the relative luminescence intensity was quantified using a spectrophotometer (Hidex Oy, Turku, Finland).

Compound: C=C(CCC(C)C1CCC2C3=C(C(=O)C(O)C21C)C1(C)CCC(O)C(C)C1CC3)C(C)C(=O)O (stereo not drawn) [ANM, antcin M]
- cell proliferation compared to the HG treatment group (HNDFs [1]): two-fold increase
- SA-β-gal positive cells (HNDFs [2]; 10 μM with HG (30 mM) for 72 h, HG alone 9.59-fold (Figure 2B)): 1.51 fold
- SA-β-gal positive cells (HNDFs [2]; ANM 10 μM with HG (30 mM) for 72 h, HG alone 5.72-fold (Figure 4B)): 1.89 fold
- SA-β-gal staining (endothelial senescence) (HUVECs): 1.36 fold
- mRNA levels of HO-1 and NQO-1 (HO-1 and NQO-1 mRNA): significantly increased
- HG-induced upregulation of p16INK4A and p21CIP1 proteins [3]: significantly downregulated
- SMP30 protein expression [3]: rescued HG-induced SMP30 depletion
- life span of C. elegans under normal condition ([4]; ANM 10 μM or RES 438 μM alone, compared to the control): significantly (P < 0.026) prolonged the life span
- life span of C. elegans under high glucose ([4]; high glucose (50 mM) with ANM (100 μM as printed elsewhere in the source), vs high glucose alone): significant (P < 0.0001) increase of life span
- cell population in the G0/G1 phase (HNDFs [5]): 49.5%
- ARE luciferase activity ([6]; ANM 10 μM or NAC 100 μM alone, control 1-fold): 5.8 fold
- ARE luciferase activity ([6]; co-treated with HG (30 mM), ANM 10 μM or NAC 100 μM, HG alone 2.5-fold): 8.5 fold
